According to PubChem BioAssay AID212 (DTP/NCI, 2004):
Where “and” joins values, the source holds several entries; their conditions need not be identical. Equal entries are not always repeated. Results filed as inconclusive are left out.

System: BDF1 mice, colon carcinoma 38 sc, T/C %
Assay: NCI In Vivo Anticancer Drug Screen. Data for tumor model Colon Carcinoma 38 (subcutaneous) in B6D2F1 (BDF1) mice
Settings: endpoint: median tumor weight (est.), schedule: Q07DX002 (ip), higher = larger tumour
In short: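 Compound antitumor activity was assessed in mice carrying transplantable tumors. Survival or tumor size was recorded, and each value is the treated-group measurement divided by that of the vehicle-treated control group.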

[1] = dose: 50.0 mg/kg/injection, vehicle: Klucel (hydroxypropylcellulose) (HPC)
[2] = dose: 400.0 mg/kg/injection, vehicle: Klucel (hydroxypropylcellulose) (HPC)
[3] = dose: 800.0 mg/kg/injection, vehicle: Klucel (hydroxypropylcellulose) (HPC)
[4] = dose: 25.0 mg/kg/injection, vehicle: saline with Tween-80
[5] = dose: 400.0 mg/kg/injection, vehicle: saline with Tween-80
[6] = dose: 12.5 mg/kg/injection, vehicle: saline with Tween-80

COc1ccc(C2Oc3cc(OC)ccc3C(=O)C2c2ccccc2)cc1 (centres undefined)
T/C (dose: 43.0 mg/kg/injection, vehicle: other): 35 % of control | T/C (dose: 72.0 mg/kg/injection, vehicle: other): 56 % of control | T/C (dose: 120.0 mg/kg/injection, vehicle: other): 41 % of control | T/C (dose: 200.0 mg/kg/injection, vehicle: other): 34 % of control | T/C (dose: 333.33 mg/kg/injection, vehicle: other): 82 % of control

O=c1[nH]c(=O)n(C2CC(O)C(CO)O2)cc1Br (centres undefined)
T/C [1]: 112 % of control | T/C [2]: 86 % of control and 87 % of control | T/C [3]: 88 % of control

C/C=C/C=C1/OC(C)=C(C(C)=O)C1=O
T/C [4]: 59 % of control and 84 % of control | T/C (dose: 200.0 mg/kg/injection, vehicle: saline with Tween-80): 54 % of control and 57 % of control and 69 % of control | T/C [5]: 37 % of control and 62 % of control | T/C (dose: 800.0 mg/kg/injection, vehicle: saline with Tween-80): 100 % of control

O=C1N[C@H]2[C@H](CS[C@H]2CCCCC(=O)N(CCP(c2ccccc2)c2ccccc2)CCP(c2ccccc2)c2ccccc2)N1
T/C [1]: 71 % of control | T/C (dose: 100.0 mg/kg/injection, vehicle: Klucel (hydroxypropylcellulose) (HPC)): 71 % of control | T/C (dose: 200.0 mg/kg/injection, vehicle: Klucel (hydroxypropylcellulose) (HPC)): 91 % of control | T/C [2]: 96 % of control | T/C [3]: 89 % of control

c1cc(-c2cc3ccc(C4=NCCN4)cc3[nH]2)ccc1C1=NCCN1
T/C (dose: 6.25 mg/kg/injection, vehicle: saline): 84 % of control | T/C (dose: 6.25 mg/kg/injection, vehicle: suspension in saline): 90 % of control | T/C (dose: 12.5 mg/kg/injection, vehicle: saline): 92 % of control | T/C (dose: 12.5 mg/kg/injection, vehicle: suspension in saline): 87 % of control | T/C (dose: 25.0 mg/kg/injection, vehicle: saline): 100 % of control | T/C (dose: 25.0 mg/kg/injection, vehicle: suspension in saline): 105 % of control | T/C (dose: 50.0 mg/kg/injection, vehicle: saline): 84 % of control | T/C (dose: 50.0 mg/kg/injection, vehicle: suspension in saline): 98 % of control

CCOC(=O)/N=[N+](\[O-])c1ccccc1
T/C (dose: 6.25 mg/kg/injection, vehicle: saline with Tween-80): 49 % of control | T/C [6]: 71 % of control

CCOC(=O)C1(c2ccccc2)C(=O)Oc2ccccc21 (centres undefined)
T/C [6]: 94 % of control | T/C [4]: 112 % of control and 87 % of control | T/C (dose: 50.0 mg/kg/injection, vehicle: saline with Tween-80): 61 % of control | T/C [5]: 107 % of control

O.O.[NH-]C1CCCCC1[NH-].[Pt+2] (centres undefined)
T/C (dose: 1.25 mg/kg/injection, vehicle: dextrose): 98 % of control | T/C (dose: 10.0 mg/kg/injection, vehicle: dextrose): 61 % of control and 62 % of control | T/C (dose: 20.0 mg/kg/injection, vehicle: dextrose): 37 % of control and 43 % of control | T/C (dose: 40.0 mg/kg/injection, vehicle: dextrose): 20 % of control

CC(=O)N(C)C
T/C (dose: 225.0 mg/kg/injection, vehicle: saline): 123 % of control | T/C (dose: 900.0 mg/kg/injection, vehicle: saline): 111 % of control and 100 % of control | T/C (dose: 1800.0 mg/kg/injection, vehicle: saline): 62 % of control and 84 % of control | T/C (dose: 3600.0 mg/kg/injection, vehicle: saline): 46 % of control and 65 % of control
